Assay results as given in patent US20210186905A1, “ENHANCING T-CELL FUNCTION AND TREATING A T-CELL DYSFUNCTIONAL DISORDER WITH A COMBINATION OF AN LSD INHIBITOR AND A PD-1 BINDING ANTAGONIST” (EpiAxis Therapeutic Pty Ltd, priority 2017, published 2021).
Where a name gives a salt, the structure may show the parent alone.

Columns and labels:
LSD1p, CSV and ALDH1A = experiment: Immunofluorescence of FFPE tissue, metastatic lesions in lung or liver of 4T1 mice; type: in vivo, mouse
Method: FIG. 3 is a photographic and graphical representation showing that dual epigenetic-immunotherapy inhibits metastatic progression in 4T1 Mouse model. A. 4T1 Treatment FFPE from each treatment group (Group A=Control, Group C: PD1 (10 mg/kg), Group D: Phenelzine (40 mg/kg), Group F: PD1+Phenelzine) and for each target organ (Lung and Liver) was processed for 3D high resolution microscopy using the BondRX. FFPE tissues were fixed and Immunofluorescence microscopy was performed probing with rabbit LSD1(S111p); mouse anti CSV and goat anti […] and visualized with a donkey anti-rabbit AF 488, anti-mouse 568 and anti-goat 633. Cover slips were mounted on glass microscope slides with ProLong Diamond Antifade reagent (Life Technologies). Protein targets were localized by confocal laser scanning microscopy. Single 0.5 μm sections were obtained using a Leica DMI8 microscope using 100× oil immersion lens running LAX software. The final image was obtained by averaging four sequential images of the same section. Digital images were analyzed using ImageJ software (ImageJ, NIH, Bethesda, Md., USA) to determine the either the Total Nuclear Fluorescent Intensity (TNFI), the Total Cytoplasmic Fluorescent Intensity (TCFI) or total Fluorescent Intensity (TFI). N=40 cells were counted. B. Graphs for both organs are presented here. Graphs represent the TNFI values for LSD1, ALDH1A and TCFI for CSV measured using ImageJ to select the nucleus minus background. Representative images for the Lung dataset are shown.
The expression of a mesenchymal, stem-like biomarker panel was examined in metastatic sites in a 4T1 mouse model treated with vehicle control (Group A), anti-PD1 antibody (10 mg/kg) (Group C), phenelzine sulfate (40 mg/kg) (Group D) or a combination of both (Group F). The present inventors examined the presence of metastatic lesions in the lung or liver and measured the immunofluorescence (IF) of formalin-fixed paraffin-embedded (FFPE) tissue examining the IF intensity of LSD1p, CSV and ALDH1A.
4T1 Treatment FFPE from each treatment group primary tumor biopsies were processed in the BondRX for IFA staining using the instrument protocol: ER2 for 20 mins at 100° C. with Epitope Retrieval Solution 2 which is a pH-9 EDTA based retrieval solution followed by probing with rabbit anti LSD1 (S111p); mouse anti CSV and goat anti ALDH1A and visualized with a donkey anti-rabbit AF 488, anti-mouse 568 and anti-goat 633 or anti rat 633. Cover slips were mounted on glass microscope slides with ProLong Diamond Antifade reagent (Life Technologies). Protein targets were localized by confocal laser scanning microscopy. Single 0.5 μm sections were obtained using a Leica DMI8 microscope using 100× oil immersion lens running LAX software. The final image was obtained by averaging four sequential images of the same section. Digital images were analysed using ImageJ software (ImageJ, NIH, Bethesda, Md., USA) to determine the either the Total Nuclear Fluorescent Intensity (TNFI), the Total Cytoplasmic Fluorescent Intensity (TCFI) or total Fluorescent Intensity (TFI).

[1] = system: MDA-MB-231 breast cancer cell line
Method: (§1) A. MDA-MB-231 breast cancer cell line was treated with increasing doses of phenelzine sulfate (phenelzine). Immunofluorescence microscopy was performed on cells fixed and probed with primary anti-LSD1s111p and anti-H3k4me2 and DAPI. Representative images for each dataset are shown. Graph represents the TNFI values for LSD1p and H3k4me2 measured using ImageJ to select the nucleus minus background (n>20 individual cells). B. The effect of phenelzine sulfate on cell proliferation of MDA-MB-231 cells was analyzed using the WST-1 proliferation assay

LSD1 = LSD1 (Homo sapiens, UniProt O60341); details: MDA-MB-231; TNFI of LSD1p and H3k4me2
Method: as §1

[2] = system: F4/80+ macrophages (CD38, CD206, LSD1p); experiment: Immunofluorescence assay of TME macrophage populations (M1/M2 profiles); type: in vivo, mouse
Method: FIG. 4 is a graphical representation showing that dual epigenetic-immunotherapy re-educates and re-programs innate macrophage repertoire. A. Immunofluorescence microscopy was performed on F4/80+MØ cells fixed and probed with a M1 panel consisting of anti-CD38 and ? odies and DAPI. […] B. Immunofluorescence microscopy was performed on F4/80+MØ cells fixed and probed with a M2 panel consisting of anti-CD206 and anti LSD1p antibodies and DAPI.
The effect of these treatment modalities was also investigated on TME macrophage populations by immunofluorescence assay (IFA). In particular, the M1 (CD38 expression) and M2 profiles (CD206 expression) were examined, along with LSD1p expression.
A total of 2×10^5 cells were injected per mouse into mammary gland in 50 μL of phosphate buffered saline (PBS). Treatments were started on mice after 15 days post-inoculation of 4T1 cells. […] Tumors were measured using calipers and the tumor volumes (mm3) were calculated using the formula (length×width2)/2. ? arvested cells from primary tumors where then cytospun ? -treated with poly-1-lysine and fixed then stored in PBS for IFA Microscopy Analysis. […] Digital images were analysed using ImageJ software (ImageJ, NIH, Bethesda, Md., USA) to determine the either the Total Nuclear Fluorescent Intensity (TNFI), the Total Cytoplasmic Fluorescent Intensity (TCFI) or total Fluorescent Intensity (TFI).

nuclear axis of LSD1, as measured by H3k4me2 de-methylation (LSD1): inhibited
Structure (SMILES): NNCCc1ccccc1 (racemic) [phenelzine sulfate, (±)-2-phenylethylhydrazine]
ALDH1A expression (LSD1p, CSV and ALDH1A; liver lesions): strongly inhibited
CSV expression (LSD1p, CSV and ALDH1A; liver lesions): strongly inhibited
LSD1p IF intensity (LSD1p, CSV and ALDH1A; liver lesions): strongly inhibited
ALDH1A expression (LSD1p, CSV and ALDH1A; lung lesions): strongly inhibited
CSV expression (LSD1p, CSV and ALDH1A; lung lesions): strongly inhibited
LSD1p IF intensity (LSD1p, CSV and ALDH1A; lung lesions): strongly inhibited
proliferation of MDA-MB-231, as measured by the WST-1 assay [1]: inhibiting the proliferation
M1 phenotype (CD38 expression and LSD1p inhibition) [2]: most strongly enhanced
tumor associated M2 profile (CD206 and LSD1p expression) [2]: re-programmed and inhibited
